{"source": "patent US11103509B2", "about": "(University of Kentucky Research Foundation, priority 2018, dated 2021)", "key": {"[1]": {"test_system": "pain in cancer patients", "test": "clinical data mining: patients complaining about pain in lapatinib clinical trials", "assay_type": "in vivo, human", "set-up": "Pain decreased compared to control group (%): Arthralgia / Pain decreased compared to control group (%): Musculoskeletal Pain / Pain decreased compared to control group (%): Headache / Pain decreased compared to control group (%): Oral pain / Pain decreased compared to control group (%): Pain-overall / Pain decreased compared to control group (%): Myalgia: concentration or dose not given beside the values", "protocol": "The “other adverse events” part of the clinical report was analyzed.\nIn particular, all of the data from clinical trials NCT00424255, NCT00390455, NCT00371566, and NCT00374322 was collected together as a larger dataset.\n(§1) All p values on the differences between groups were calculated using χ^2 tests on GraphPad Prism 6.0. Confidence interval was set at 95%. […] Barnard's tests or Fisher's tests were not chosen due to the large sample size and Yate's correction on χ^2 tests was not adopted due to the same reason."}, "[2]": {"test_system": "pain in cancer patients", "test": "clinical data mining: pain complaints in phase III clinical trial NCT00490139", "assay_type": "in vivo, human", "conditions": "compared to patients given only trastuzumab (FIG. 5)", "protocol": "as §1"}, "[3]": {"test_system": "pain symptoms in inflammatory breast cancer patients", "conditions": "lapatinib monotherapy, n=17, not statistically significant (p>0.05); cited from earlier work"}, "[4]": {"test_system": "pain in cancer patients", "conditions": "cited from earlier work"}, "[5]": {"conditions": "human, read-out: Cmax (μM) in plasma, cited from earlier work"}, "[6]": {"target": "T1, human mPGES-1 (Homo sapiens, UniProt O14684)", "T1 construct": "made in house", "T1 sequence (O14684 1-152)": "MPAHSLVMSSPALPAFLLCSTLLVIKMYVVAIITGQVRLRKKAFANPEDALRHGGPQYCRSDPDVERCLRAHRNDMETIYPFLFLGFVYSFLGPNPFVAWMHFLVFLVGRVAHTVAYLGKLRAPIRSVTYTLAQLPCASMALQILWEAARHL", "test": "in vitro inhibitory activity against human mPGES-1 (PGE2 enzyme immunoassay)", "assay_type": "biochemical", "protocol": "The above computational predictions were followed by in vitro activity assays for their actual inhibitory activity against human mPGES-1 using an ELISA assay previously-described.^16-17, 19 Specifically, a total of 18 FDA-approved drugs were assayed for their inhibitory activity against human mPGES-1.\nThe protocol for the protein preparation and in vitro activity assays were the same as described previously.^69-72 The enzyme activity assays were performed on ice in 1.5 ml microfuge tubes by using the expressed human mPGES-1. The reaction mixture contained: 0.2 M Na2HPO4/NaH2PO4, pH 7.2, 10 μL; 0.1 M GSH, 2.5 μL; diluted microsomal enzyme (80 μg/mL), 1 μL; PGH2 (0.31 mM in DMF), 5 μL; 1 μL inhibitor; and H2O in a final reaction volume of 100 μL. PGH2 was stored in dry ice and used to initiate the reaction. Compounds were incubated with the enzyme for 15 min at room temperature before the addition of cold PGH2 (1 μM final) to initiate the enzyme reaction. After 30 s, 10 μL of SnCl2 (40 mg/mL) in ethanol was added to stop the reaction. The non-enzymatic conversion of PGH2 to PGE2 was performed in the same buffer devoid of enzyme. The reaction mixture was placed on ice until PGE2 production was determined by the PGE2 enzyme immunoassay as described earlier. IC50 values of the inhibitors were calculated by using the GraphPad Prism 6.0."}, "[7]": {"test_system": "pain in cancer patients", "conditions": "NCT00490139 Group III: oral lapatinib 1500 mg daily, 52 weeks; cited from earlier work"}, "[8]": {"target": "T1, human mPGES-1", "test": "in vitro inhibitory activity against human mPGES-1 (PGE2 enzyme immunoassay)", "assay_type": "biochemical", "conditions": "lapatinib constant 1 μM, GSH at different concentrations (FIG. 3D)"}, "[9]": {"conditions": "all individual pains added, four trials"}, "[10]": {"conditions": "combined NCT00374322, NCT00390455"}, "[11]": {"conditions": "combined NCT00374322, NCT00390455, NCT00424255, NCT00371566"}, "[12]": {"conditions": "combined NCT00390455, NCT00424255"}, "[13]": {"conditions": "combined NCT00424255, NCT00371566"}, "[14]": {"conditions": "combined nine trials (footnote e)"}, "[15]": {"conditions": "NCT00371566, with drug total 69"}, "[16]": {"conditions": "NCT00374322, with drug total 1573"}, "[17]": {"conditions": "NCT00390455, with drug total 141"}, "[18]": {"conditions": "NCT00424255, with drug total 349"}}, "note": "Entries after “also recorded” stand apart in the source; their conditions may differ. Where two headings read alike, the source gives them in different places.", "data": [{"smiles": "CS(=O)(=O)CCNCc1ccc(-c2ccc3ncnc(Nc4ccc(OCc5cccc(F)c5)c(Cl)c4)c3c2)o1", "note": "[lapatinib]", "values": [{"measurement": "# of patients complaining pain/# of patients given lapatinib, Counts: Pain-overall", "setting": "[1]; [9]", "value": "304/4754"}, {"measurement": "patients complaining pain, Percentage (%): Pain-overall", "setting": "[1]; [9]", "value": 6.39, "unit": "%"}, {"measurement": "Pain decreased compared to control group (%): Pain-overall", "setting": "[1]; all individual pains added, four trials, control drugs or placebo", "value": 28.00, "unit": "%"}, {"measurement": "# of patients complaining pain/# of patients given lapatinib, Counts: Arthralgia", "setting": "[1]; [10]", "value": "72/1714"}, {"measurement": "patients complaining pain, Percentage (%): Arthralgia", "setting": "[1]; [10]", "value": 4.20, "unit": "%"}, {"measurement": "# of patients complaining pain/# of patients given lapatinib, Counts: Headache", "setting": "[1]; [11]", "value": "182/2132"}, {"measurement": "patients complaining pain, Percentage(%): Headache", "setting": "[1]; [11]", "value": 8.54, "unit": "%"}, {"measurement": "Pain decreased compared to control group (%): Headache", "setting": "[1]; combined NCT00374322, NCT00390455, NCT00424255, NCT00371566, control drugs or placebo", "value": 23.02, "unit": "%"}, {"measurement": "Pain decreased compared to control group (%): Arthralgia", "setting": "[1]; combined NCT00374322, NCT00390455, control drugs or placebo", "value": 39.60, "unit": "%"}, {"measurement": "# of patients complaining pain/# of patients given lapatinib, Counts: Musculoskeletal Pain", "setting": "[1]; [12]", "value": "15/490"}, {"measurement": "patients complaining pain, Percentage (%): Musculoskeletal Pain", "setting": "[1]; [12]", "value": 3.06, "unit": "%"}, {"measurement": "Pain decreased compared to control group (%): Musculoskeletal Pain", "setting": "[1]; combined NCT00390455, NCT00424255, control drugs or placebo", "value": 39.67, "unit": "%"}, {"measurement": "# of patients complaining pain/# of patients given lapatinib, Counts: Oral pain", "setting": "[1]; [13]", "value": "35/418"}, {"measurement": "patients complaining pain, Percentage (%): Oral pain", "setting": "[1]; [13]", "value": 8.37, "unit": "%"}, {"measurement": "Pain decreased compared to control group (%): Oral pain", "setting": "[1]; combined NCT00424255, NCT00371566, control drugs or placebo", "value": 18.03, "unit": "%"}, {"measurement": "# of patients complaining pain/# of patients given lapatinib, Counts: Myalgia", "setting": "[1]; [14]", "value": "321/3314"}, {"measurement": "patients complaining pain, Percentage (%): Myalgia", "setting": "[1]; [14]", "value": 9.69, "unit": "%"}, {"measurement": "Pain decreased compared to control group (%): Myalgia", "setting": "[1]; combined nine trials (footnote e), control drugs or placebo", "value": 14.02, "unit": "%"}, {"measurement": "overall pain relief (in words)", "setting": "[1]; pain-overall category, combined trials, p<0.05", "value": "significantly relieve pain in cancer patients"}, {"measurement": "pain relief in NCT00490139 (in words)", "setting": "[2]", "value": "significantly relive all types of pain (p<0.05), except for the back pain"}, {"measurement": "relief from symptoms including pain (in words)", "setting": "[3]", "value": "provide relief from symptoms, including pain, in the short term"}, {"measurement": "Headache, With drug pains", "setting": "[4]; [15]", "value": 3}, {"measurement": "Oral pain, With drug pains", "setting": "[4]; [15]", "value": 10}, {"measurement": "patients reporting arthralgia / patients in lapatinib group", "setting": "[4]; NCT00374322, vs placebo 113/1574", "value": "69/1573"}, {"measurement": "patients reporting headache / patients in lapatinib group", "setting": "[4]; NCT00374322, vs placebo 185/1574", "value": "140/1573"}, {"measurement": "Arthralgia, With drug pains", "setting": "[4]; [16]", "value": 69}, {"measurement": "Headache, With drug pains", "setting": "[4]; [16]", "value": 140}, {"measurement": "Arthralgia, With drug pains", "setting": "[4]; [17]", "value": 3}, {"measurement": "Back Pain, With drug pains", "setting": "[4]; [17]", "value": 5}, {"measurement": "Bone Pain, With drug pains", "setting": "[4]; [17]", "value": 3}, {"measurement": "Headache, With drug pains", "setting": "[4]; [17]", "value": 19}, {"measurement": "Musculoskeletal Pain, With drug pains", "setting": "[4]; [17]", "value": 0}, {"measurement": "Pain In Extremity, With drug pains", "setting": "[4]; [17]", "value": 1}, {"measurement": "Pain-chest/thorax, With drug pains", "setting": "[4]; [17]", "value": 1}, {"measurement": "Headache, With drug pains", "setting": "[4]; [18]", "value": 20}, {"measurement": "Musculoskeletal Pain, With drug pains", "setting": "[4]; [18]", "value": 15}, {"measurement": "Oral pain, With drug pains", "setting": "[4]; [18]", "value": 25}, {"measurement": "Cmax", "setting": "[5]; 1250 mg orally once daily, trial NCT00477464", "value": 6.06, "unit": "µM"}, {"measurement": "Cmax", "setting": "[5]; 1500 mg (6 pills at 250 mg) once oral daily, trials NCT00486954 and NCT01138046, average Cmax", "value": 8.6, "unit": "µM"}, {"measurement": "Cmax", "setting": "[5]; dose 10 mg, GW572016 ditosylate monohydrate oral suspension (Bence et al.)", "value": 0.019, "unit": "µM"}, {"measurement": "Cmax", "setting": "[5]; dose 25 mg, GW572016 ditosylate monohydrate oral suspension (Bence et al.)", "value": 0.04, "unit": "µM"}, {"measurement": "Cmax", "setting": "[5]; dose 50 mg, GW572016 ditosylate monohydrate oral suspension (Bence et al.)", "value": 0.124, "unit": "µM"}, {"measurement": "Cmax", "setting": "[5]; dose 100 mg, GW572016 ditosylate monohydrate oral suspension (Bence et al.)", "value": 0.213, "unit": "µM"}, {"measurement": "Cmax", "setting": "[5]; dose 175 mg, GW572016 ditosylate monohydrate oral suspension (Bence et al.)", "value": 0.38, "unit": "µM"}, {"measurement": "Cmax", "setting": "[5]; dose 250 mg, GW572016 ditosylate monohydrate oral suspension (Bence et al.)", "value": 0.546, "unit": "µM"}, {"measurement": "Cmax", "setting": "[5]; dose 500 mg, tablets, daily oral, trial EGF10004", "value": 1.76, "unit": "µM"}, {"measurement": "Cmax", "setting": "[5]; dose 650 mg, tablets, daily oral, trial EGF10004", "value": 2.24, "unit": "µM"}, {"measurement": "Cmax", "setting": "[5]; dose 1000 mg, tablets, daily oral, trial EGF10004", "value": 3.18, "unit": "µM"}, {"measurement": "IC50", "setting": "[6]", "value": 800, "unit": "nM"}, {"measurement": "Arthralgia, Patient counts", "setting": "[7]", "value": "290/2057"}, {"measurement": "Arthralgia, patient percentage", "setting": "[7]", "value": "(14.10%)"}, {"measurement": "Back Pain, patient percentage", "setting": "[7]", "value": "(5.79%)"}, {"measurement": "Bone Pain, Patient counts", "setting": "[7]", "value": "91/2057"}, {"measurement": "Bone Pain, patient percentage", "setting": "[7]", "value": "(4.42%)"}, {"measurement": "Headache, Patient counts", "setting": "[7]", "value": "161/2057"}, {"measurement": "Headache, patient percentage", "setting": "[7]", "value": "(7.83%)"}, {"measurement": "Musculoskeletal pain, Patient counts", "setting": "[7]", "value": "70/2057"}, {"measurement": "Musculoskeletal pain, patient percentage", "setting": "[7]", "value": "(3.40%)"}, {"measurement": "Pain in Extremity, Patient counts", "setting": "[7]", "value": "99/2057"}, {"measurement": "Pain in Extremity, patient percentage", "setting": "[7]", "value": "(4.81%)"}, {"measurement": "competition with co-factor GSH", "setting": "[8]", "value": "competes with co-factor GSH; also recorded: GSH-competitive inhibitor"}]}]}
